Source: US9340590B2 (priority 2011, dated 2016)
Read-outs that look alike come from different tables or passages of the source. Positions of bridges follow the written chain, without caps; N, C: chain ends. Non-standard residues stand in square brackets, D forms with d. Residues, ends and D or L forms follow the SMILES beside them. No end group written: not given here. Lys(Me2) = CN(C)CCCC[C@H](N)C(=O)O; Abu = CC[C@H](N)C(=O)O

Target: hNav1.7 (Homo sapiens, UniProt Q15858)
Test: cell-based
Type: cell-based
Conditions: for IC50: read-out: IWQ Use Nav1.7

Sequence of hNav1.7 (Q15858 whole entry, looked up): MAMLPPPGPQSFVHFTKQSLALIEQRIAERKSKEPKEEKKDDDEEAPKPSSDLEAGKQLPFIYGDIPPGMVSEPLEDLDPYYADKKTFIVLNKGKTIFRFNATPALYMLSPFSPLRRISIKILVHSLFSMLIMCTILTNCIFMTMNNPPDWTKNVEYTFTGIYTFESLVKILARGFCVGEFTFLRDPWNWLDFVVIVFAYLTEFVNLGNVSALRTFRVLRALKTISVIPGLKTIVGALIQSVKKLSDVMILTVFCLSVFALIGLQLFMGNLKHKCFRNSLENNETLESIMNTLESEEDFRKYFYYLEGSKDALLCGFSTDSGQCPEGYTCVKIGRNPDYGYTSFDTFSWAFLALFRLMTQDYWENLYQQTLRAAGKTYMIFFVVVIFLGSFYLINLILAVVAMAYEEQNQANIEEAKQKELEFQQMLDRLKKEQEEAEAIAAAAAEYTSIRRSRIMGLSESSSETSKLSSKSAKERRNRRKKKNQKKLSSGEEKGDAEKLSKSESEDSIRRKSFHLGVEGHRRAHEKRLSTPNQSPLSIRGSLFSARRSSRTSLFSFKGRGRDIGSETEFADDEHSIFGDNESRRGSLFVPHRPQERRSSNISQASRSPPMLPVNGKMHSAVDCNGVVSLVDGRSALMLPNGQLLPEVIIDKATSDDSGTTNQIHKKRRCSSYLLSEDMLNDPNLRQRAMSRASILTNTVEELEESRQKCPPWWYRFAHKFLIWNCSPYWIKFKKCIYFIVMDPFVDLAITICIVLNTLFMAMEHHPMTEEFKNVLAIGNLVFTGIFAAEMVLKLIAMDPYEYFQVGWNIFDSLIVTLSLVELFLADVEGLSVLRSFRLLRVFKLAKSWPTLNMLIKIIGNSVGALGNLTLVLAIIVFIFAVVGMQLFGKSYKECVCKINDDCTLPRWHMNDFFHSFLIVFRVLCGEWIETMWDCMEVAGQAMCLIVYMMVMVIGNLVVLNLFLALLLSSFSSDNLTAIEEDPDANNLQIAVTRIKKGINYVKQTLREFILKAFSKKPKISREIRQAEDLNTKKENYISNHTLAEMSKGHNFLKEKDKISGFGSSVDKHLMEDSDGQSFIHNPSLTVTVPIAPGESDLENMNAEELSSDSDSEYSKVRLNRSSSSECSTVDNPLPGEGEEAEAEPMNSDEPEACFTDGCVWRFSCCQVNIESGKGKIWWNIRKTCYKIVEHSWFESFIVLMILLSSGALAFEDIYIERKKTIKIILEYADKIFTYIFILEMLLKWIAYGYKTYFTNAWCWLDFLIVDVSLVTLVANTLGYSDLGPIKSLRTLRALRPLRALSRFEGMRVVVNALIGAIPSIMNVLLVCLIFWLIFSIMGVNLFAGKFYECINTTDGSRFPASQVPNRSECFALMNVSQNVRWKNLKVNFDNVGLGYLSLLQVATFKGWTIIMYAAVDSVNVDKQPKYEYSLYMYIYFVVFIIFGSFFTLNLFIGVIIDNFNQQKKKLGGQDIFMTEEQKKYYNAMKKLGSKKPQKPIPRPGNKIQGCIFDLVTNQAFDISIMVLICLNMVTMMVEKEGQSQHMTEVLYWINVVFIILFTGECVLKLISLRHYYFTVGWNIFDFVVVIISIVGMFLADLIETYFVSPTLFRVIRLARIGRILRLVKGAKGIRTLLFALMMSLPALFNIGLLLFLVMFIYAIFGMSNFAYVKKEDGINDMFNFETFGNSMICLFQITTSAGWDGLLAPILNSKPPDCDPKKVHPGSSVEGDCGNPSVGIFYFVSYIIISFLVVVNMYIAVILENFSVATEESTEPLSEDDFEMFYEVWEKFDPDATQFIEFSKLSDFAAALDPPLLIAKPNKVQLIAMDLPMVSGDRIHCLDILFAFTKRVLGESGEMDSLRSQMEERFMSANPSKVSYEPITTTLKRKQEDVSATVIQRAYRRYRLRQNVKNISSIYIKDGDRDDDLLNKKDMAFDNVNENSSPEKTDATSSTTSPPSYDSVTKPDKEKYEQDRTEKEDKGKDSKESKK

Row | Molecule | IC50 (IonWorks Quattro, Use) [nM] | also measured
1 | CC[C@H](C)[C@@H]1NC(=O)[C@@H]2CSSC[C@@H]3NC(=O)[C@H](C(C)C)NC(=O)[C@H](CC(C)C)NC(=O)[C@H](CC(N)=O)NC(=O)[C@@H]4CCCN4C(=O)[C@H](CCCNC(=N)N)NC(=O)[C@H](CSSC[C@H](NC(=O)[C@H](C)N)C(=O)N[C@@H](CC(C)C)C(=O)NCC(=O)N[C@@H](Cc4ccccc4)C(=O)N[C@@H](CCSC)C(=O)N[C@@H](CCCNC(=N)N)C(=O)N[C@@H](CCCCN)C(=O)N2)NC(=O)[C@H](CSSC[C@@H](C(=O)N[C@@H](CCCCN)C(=O)N[C@@H](Cc2ccc(O)cc2)C(=O)N[C@H](C(=O)N[C@@H](Cc2ccccc2)C(N)=O)C(C)C)NC(=O)[C@H](Cc2c[nH]c4ccccc24)NC(=O)[C@H](CCCCN)NC(=O)[C@H](Cc2c[nH]cn2)NC(=O)[C@H]([C@@H](C)O)NC(=O)[C@H](CCCNC(=N)N)NC(=O)[C@H](CO)NC3=O)NC(=O)[C@H](CCCCN)NC(=O)[C@H](CC(=O)O)NC(=O)[C@H](CC(N)=O)NC(=O)[C@H](CC(=O)O)NC(=O)[C@@H]2CCCN2C1=O [SEQ ID NO: 20] (H-ACLGFMRKCIPDNDKCCRPNLVCSRTHKWCKYVF-NH2; disulfide 2-17, 9-23, 16-30) | – | IC50 (IonWorks Quattro, clamped to −110 mV, depolarized to −10 mV, 5 min after compound, n=2): 100 nM
2 | CC[C@H](C)[C@@H]1NC(=O)[C@@H]2CSSC[C@@H]3NC(=O)[C@H](C(C)C)NC(=O)[C@H](CC(C)C)NC(=O)[C@H](CC(N)=O)NC(=O)[C@H](CCCNC(=N)N)NC(=O)[C@H](CCCNC(=N)N)NC(=O)[C@H](CSSC[C@H](NC(=O)[C@@H](N)CC(=O)O)C(=O)N[C@@H](CC(C)C)C(=O)NCC(=O)N[C@@H](Cc4ccccc4)C(=O)N[C@@H](CCSC)C(=O)N[C@@H](CCCNC(=N)N)C(=O)N[C@@H](CCCCN)C(=O)N2)NC(=O)[C@H](CSSC[C@@H](C(=O)N[C@@H](CCCCN)C(=O)N[C@@H](Cc2ccc(O)cc2)C(=O)N[C@H](C(=O)N[C@@H](Cc2ccccc2)C(N)=O)C(C)C)NC(=O)[C@H](Cc2c[nH]c4ccccc24)NC(=O)[C@H](CCCCN)NC(=O)[C@H](Cc2c[nH]cn2)NC(=O)[C@H]([C@@H](C)O)NC(=O)[C@H](CCCNC(=N)N)NC(=O)[C@H](CO)NC3=O)NC(=O)[C@H](CCCCN)NC(=O)[C@H](CC(=O)O)NC(=O)[C@H](CC(N)=O)NC(=O)[C@H](CC(=O)O)NC(=O)[C@@H]2CCCN2C1=O [compound 157] (H-DCLGFMRKCIPDNDKCCRRNLVCSRTHKWCKYVF-NH2; disulfide 2-17, 9-23, 16-30) | 70 | –
3 | CSCC[C@@H]1NC(=O)[C@H](Cc2ccccc2)NC(=O)CNC(=O)[C@H](CC(C)C)NC(=O)[C@@H](NC(=O)[C@@H](N)CC(=O)O)CSSC[C@@H]2NC(=O)[C@@H]3CSSC[C@@H](C(=O)N[C@@H](CCCCN)C(=O)N[C@@H](Cc4ccc(O)cc4)C(=O)N[C@H](C(=O)N[C@@H](Cc4ccccc4)C(N)=O)C(C)C)NC(=O)[C@H](Cc4c[nH]c5ccccc45)NC(=O)[C@H](CCCCN)NC(=O)[C@H](Cc4c[nH]cn4)NC(=O)[C@H]([C@@H](C)O)NC(=O)[C@H](CCCNC(=N)N)NC(=O)[C@H](CO)NC(=O)[C@H](CSSC[C@H](NC(=O)[C@H](CCCCN)NC(=O)[C@H](CCCNC(=N)N)NC1=O)C(=O)N[C@@H](C(C)C)C(=O)N1CCC[C@H]1C(=O)N[C@@H](CC(=O)O)C(=O)N[C@@H](CC(N)=O)C(=O)N[C@@H](CC(=O)O)C(=O)N[C@@H](CCCCN)C(=O)N3)NC(=O)[C@H](C(C)C)NC(=O)[C@H](CC(C)C)NC(=O)[C@H](CC(N)=O)NC(=O)[C@@H]1CCCN1C(=O)[C@H](CCCNC(=N)N)NC2=O [compound 301] (H-DCLGFMRKCVPDNDKCCRPNLVCSRTHKWCKYVF-NH2; disulfide 2-17, 9-23, 16-30) | 100 | –
4 | CC[C@H](C)[C@@H]1NC(=O)[C@@H]2CSSC[C@@H]3NC(=O)[C@H](C)NC(=O)[C@H](CC(C)C)NC(=O)[C@H](CC(N)=O)NC(=O)[C@@H]4CCCN4C(=O)[C@H](CCCNC(=N)N)NC(=O)[C@H](CSSC[C@H](NC(=O)[C@@H](N)CC(=O)O)C(=O)N[C@@H](CC(C)C)C(=O)NCC(=O)N[C@@H](Cc4ccccc4)C(=O)N[C@@H](CCSC)C(=O)N[C@@H](CCCNC(=N)N)C(=O)N[C@@H](CCCCN)C(=O)N2)NC(=O)[C@H](CSSC[C@@H](C(=O)N[C@@H](CCCCN)C(=O)N[C@@H](Cc2ccc(O)cc2)C(=O)N[C@H](C(=O)N[C@@H](Cc2ccccc2)C(N)=O)C(C)C)NC(=O)[C@H](Cc2c[nH]c4ccccc24)NC(=O)[C@H](CCCCN)NC(=O)[C@H](Cc2c[nH]cn2)NC(=O)[C@H]([C@@H](C)O)NC(=O)[C@H](CCCNC(=N)N)NC(=O)[C@H](CO)NC3=O)NC(=O)[C@H](CCCCN)NC(=O)[C@H](CC(=O)O)NC(=O)[C@H](CC(N)=O)NC(=O)[C@H](CC(=O)O)NC(=O)[C@@H]2CCCN2C1=O [compound 8] (H-DCLGFMRKCIPDNDKCCRPNLACSRTHKWCKYVF-NH2; disulfide 2-17, 9-23, 16-30) | 380 | –
5 | [2-Abu-2,17]GpTx-1 (D[Abu]LGFMRKCIPDNDKC[Abu]RPNLVCSRTHKWCKYVF-NH2; ends and bridges not checked) | – | activity against NaV1.7 relative to GpTx-1, in words: retains significant activity
6 | CC[C@H](C)[C@@H]1NC(=O)[C@@H]2CSSC[C@@H]3NC(=O)[C@H](C(C)C)NC(=O)[C@H](CC(C)C)NC(=O)[C@H](CC(N)=O)NC(=O)[C@@H]4CCCN4C(=O)[C@H](CCCCN(C)C)NC(=O)[C@H](CSSC[C@H](NC(=O)[C@@H](N)CC(=O)O)C(=O)N[C@@H](CC(C)C)C(=O)NCC(=O)N[C@@H](Cc4ccccc4)C(=O)N[C@@H](CCSC)C(=O)N[C@@H](CCCNC(=N)N)C(=O)N[C@@H](CCCCN)C(=O)N2)NC(=O)[C@H](CSSC[C@@H](C(=O)N[C@@H](CCCCN)C(=O)N[C@@H](Cc2ccc(O)cc2)C(=O)N[C@H](C(=O)N[C@@H](Cc2ccccc2)C(N)=O)C(C)C)NC(=O)[C@H](Cc2c[nH]c4ccccc24)NC(=O)[C@H](CCCCN)NC(=O)[C@H](Cc2c[nH]cn2)NC(=O)[C@H]([C@@H](C)O)NC(=O)[C@H](CCCNC(=N)N)NC(=O)[C@H](CO)NC3=O)NC(=O)[C@H](CCCCN)NC(=O)[C@H](CC(=O)O)NC(=O)[C@H](CC(N)=O)NC(=O)[C@H](CC(=O)O)NC(=O)[C@@H]2CCCN2C1=O [compound 314] (H-DCLGFMRKCIPDNDKCC[Lys(Me2)]PNLVCSRTHKWCKYVF-NH2; disulfide 2-17, 9-23, 16-30) | 210 | –
7 | CC[C@H](C)[C@@H]1NC(=O)[C@@H]2CSSC[C@@H]3NC(=O)[C@H](C(C)C)NC(=O)[C@H](CC(C)C)NC(=O)[C@H](CC(N)=O)NC(=O)[C@@H]4CCCN4C(=O)[C@H](CCCNC(=N)N)NC(=O)[C@H](CSSC[C@H](NC(=O)[C@@H](N)CC(=O)O)C(=O)N[C@@H](CC(C)C)C(=O)NCC(=O)N[C@@H](Cc4ccccc4)C(=O)N[C@@H](CCSC)C(=O)N[C@@H](CCCNC(=N)N)C(=O)N[C@@H](CCCCN)C(=O)N2)NC(=O)[C@H](CSSC[C@@H](C(=O)N[C@@H](CCCCN)C(=O)N[C@@H](Cc2ccc(O)cc2)C(=O)N[C@@H](CCC(=O)O)C(=O)N[C@@H](Cc2ccccc2)C(N)=O)NC(=O)[C@H](Cc2c[nH]c4ccccc24)NC(=O)[C@H](CCCCN)NC(=O)[C@H](Cc2c[nH]cn2)NC(=O)[C@H]([C@@H](C)O)NC(=O)[C@H](CCCNC(=N)N)NC(=O)[C@H](CO)NC3=O)NC(=O)[C@H](CCCCN)NC(=O)[C@H](CC(=O)O)NC(=O)[C@H](CC(N)=O)NC(=O)[C@H](CC(=O)O)NC(=O)[C@@H]2CCCN2C1=O [SEQ ID NO: 33, [Glu33]GpTx-1] (H-DCLGFMRKCIPDNDKCCRPNLVCSRTHKWCKYEF-NH2; disulfide 2-17, 9-23, 16-30) | – | IC50: 560 nM
